Consider three molecules from patent US20080260644A1, “CHLORIDE TRANSPORT UPREGULATION FOR THE TREATMENT OF TRAUMATIC BRAIN INJURY” (priority 2005, published 2008).

The subject of one assay is dentate gyrus. The assay is described as follows: Dentate gyrus throughput index (TI), voltage sensitive dye fluorescence in hippocampal slices. The format is cell-based, mouse. The source says: Slices were stimulated in the perforant pathway with one theta burst stimulation (TBS) (5 pulses of 50 μA at 100 Hz). Circles (kernels) represent average fluorescent signals in the DG and hilus respectively. FIG. 5B is a graph of the percent throughput of sham and injured (LFPI) mice.
Normal hippocampal function is directly determined by a balance between neuronal excitation and inhibition. Within the hippocampus there are three interconnected subregions referred to collectively as the ‘Trisynaptic Circuit.’ This circuit consists of the dentate gyrus (DG), area CA3, and area CA1, each having distinct physiological roles. The DG “filters” out aberrant or excessive input to the hippocampus and limits this activity from propagating further along the hippocampal circuit. […]
It is believed that the DG acts as a filter because it is extraordinarily resistant to the generation of synchronized bursting characteristic of epileptic seizures. […] Making use of fluorescent voltage sensitive dyes as a measure of hippocampal neuronal activity, a straightforward relationship has been devised in order to quantify the efficacy of dentate gyrus filtering capacity. “Throughput Index” (TI) is defined as the amount of fluorescence in the hilus divided by the fluorescence in the upper (suprapyramidal) blade of the dentate gyrus induced by afferent (perforant path) stimulation. […]

Another assay concerns dentate granule cells. As to the kind of experiment: Gramicidin perforated patch recording of the membrane potential response to GABA in dentate granule cells in brain slices. It is filed as cell-based, mouse. As for the experimental part:
Brain slices were prepared as previously reported (Witgen et al. (2005) Neuroscience, 133:1-15). Perforated patch recordings were conducted at room temperature from visually identified DG neurons using infrared differential interference contrast video microscopy (Stuart et al. (1993) Pflugers Arch., 423:511-8). Cells were voltage clamped at −60 mV, and signals were recorded and amplified with Axopatch 200 (Axon instruments, Foster city, CA), filtered at 2 kHz, digitized, and stored on a PC microcomputer for off line analysis. Electrodes were pulled to a resistance between 6 and 8 MΩ when filled with an internal solution composed of in (mM): 100 KCl, 10 Hepes, pH 7.4 (KOH), on a two stage puller (Sutter instruments, Novato, Calif.). Gramicidin (Sigma, St. Louis) was dissolved in dimethyllsulfuxide (DMSO, Sigma) (1-2 mg/ml) then diluted in the pipette filling solution (1:1000). Progress of membrane patch perforation was evaluated by following the decrease in access resistance (Ra) and recordings were begun once Ra had stabilized ([…]). Current-voltage (IV) relationships were generated using a voltage ramp (−110 to +40 ata rate of 107 mV/ms) in the absence and presence of agonist (GABA, 100 μM, applied 125 ms, 40-60 PSI using a Picospritzer II, General Valve Corporation, Fairfield, N.J.). For chloride fluorescence experiments, the internal solution was composed of (in mM) Kgluconate, 145; MgCl2, 2; BAPTA, 0.1; KCl, 2.5; NaCl, 2.5; HEPES, 10; GTP-Tris, 0.5; Mg-ATP, 2; pH 7.4 (KOH; Vhold=0 mV). For low K^+ experiments, KCl concentration was reduced from 3 to 1 mM while the concentration of NaCl was increased to maintain tonicity.
In order to investigate the functional consequences of reduced KCC2 expression in DG from injured animals, gramacidin perforated patch recordings were performed in dentate granule cells in brain slices derived from sham and FPI animals. Current-voltage (1-V) relationships were created using a voltage ramp that stepped the membrane voltage from a holding potential of −60 mV to −110 mV for 200 ms and then ramped the voltage from −110 to +40 mV at a rate of 107 mV/msec. I-V relationships were plotted by subtracting ramp currents recorded in control solution (aCSF) from currents recorded in the presence of ionophoresed agonist (GABA 100 μm) in brain slices from both sham (FIG. 2A) and FPI (FIG. 2B) animals. […] Mean EGABA values were −72±4.3 (n=7) in sham slices and −51±4.0 mV (n=16) in FPI slices. To ensure that the perforated patch configuration remained intact during the experiment, in several dentate granule cells (recorded in slices from both sham and injured animals) the patch was subsequently ruptured to enter into the whole cell configuration. […]

SMILES strings stand for the structures.

On to `CCCC(=O)O[C@@H]1[C@@H](C)[C@@]2(O)[C@@H](C=C(CO)C[C@]3(O)C(=O)C(C)=C[C@@H]23)[C@@H]2C(C)(C)[C@]12OC(=O)CCC` [PDBu, phorbol 12,13-dibutyrate], for which the “effect on dentate gyrus throughput index (TI)” value in the assay with dentate gyrus (slices from brain injured (FPI) animals) was “significantly (p<0.05) reduces”. Moreover, the “effect on DG filtering (TI)” value in the assay with dentate gyrus (slices from sham animals) is recorded as “does not affect”.

As for `CCCCNc1cc(C(=O)O)cc(S(N)(=O)=O)c1Oc1ccccc1` [bumetanide], the “GABA response in the presence of bumetanide compared to GABA alone” value in the assay with dentate granule cells (slices from sham animals, bumetanide 10 μM) is on record as 39%. Further, the “response to focally applied GABA in the presence of bumetanide” value in the assay with dentate granule cells (slices from sham animals, bumetanide 10 μM bath applied, n=15) is recorded as −5±3.1 mV.

Regarding `NCCCC(=O)O` [GABA, gamma-aminobutyric acid], the “membrane potential response to iontophoresed GABA” value in the assay with dentate granule cells (DG neurons from naïve or sham animals, GABA 100 μM) is reported as −14±0.7 mV; with dentate granule cells (DG neurons in slices from injured (FPI) animals) it was “depolarizing response”.
